Data published in patent publication US20230085307A1, “PYRIDAZINONE COMPOUND AND HERBICIDE” (NISSAN CHEMICAL CORPORATION, priority 2019, published 2023).

Legend:
barnyard grass [1] = assay: Test Example 3: herbicidal effect by foliage application, Wagner pot (Table 18, symbol H); type: in vivo, barnyard grass (Echinochloa crus-galli)
Outline: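 Plants were sown in alluvial soil held under 0.1–0.5 cm standing water and grown 14 days in a greenhouse at 25–30 °C. An emulsifiable formulation, water-diluted to the set dose, was then sprayed onto the foliage, and effects were scored three weeks later using previously defined criteria.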

velvetleaf = assay: Test Example 4: herbicidal effect by soil treatment (Table 19, symbol M); type: in vivo, velvetleaf (Abutilon theophrasti); details: for herbicidal effect rating, M: velvetleaf: 320 g/ha
Outline: (§1)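 In this soil treatment, the formulated compound reached the seeds only through the soil: seeds were buried about 1.5 cm deep in sterilized diluvial soil, then the diluted emulsion was sprayed over the surface. After three weeks at 25° C. to 30° C. in a greenhouse, effects were graded on criteria from an earlier test.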

chickweed = assay: Test Example 5: herbicidal effect by foliage application, plastic box (Table 20, symbol P); type: in vivo, common chickweed (Stellaria media); details: foliage application; for P: chickweed, herbicidal effect: three weeks after application; for herbicidal effect on P: chickweed: 320 g/ha, evaluated three weeks after application
Outline: (§2)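 Plants were sown into sterilized diluvial soil under about 1.5 cm cover and kept in a greenhouse at 25° C. to 30° C. Fourteen days on, foliage received an even spray of the diluted emulsion. Herbicidal or crop effect was judged three weeks afterwards.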

persian speedwell [2] = assay: Test Example 4: herbicidal effect by soil treatment (Table 19, symbol R); type: in vivo, Persian speedwell (Veronica persica); details: for herbicidal effect rating, R: persian speedwell: 320 g/ha
Outline: as §1

redroot pigweed [3] = assay: Test Example 5: herbicidal effect by foliage application, plastic box (Table 20, symbol N); type: in vivo, redroot pigweed (Amaranthus retroflexus); details: foliage application; for N: redroot pigweed, herbicidal effect: three weeks after application; for herbicidal effect on N: redroot pigweed: 320 g/ha, evaluated three weeks after application
Outline: as §2

lambsquarters = assay: Test Example 5: herbicidal effect by foliage application, plastic box (Table 20, symbol O); type: in vivo, lambsquarters (Chenopodium album); details: foliage application; for O: lambsquarters, herbicidal effect: three weeks after application; for herbicidal effect on O: lambsquarters: 320 g/ha, evaluated three weeks after application
Outline: as §2

green foxtail = assay: Test Example 4: herbicidal effect by soil treatment (Table 19, symbol G); type: in vivo, green foxtail (Setaria viridis); details: for herbicidal effect rating, G: green foxtail: 320 g/ha
Outline: as §1

southern crabgrass = assay: Test Example 5: herbicidal effect by foliage application, plastic box (Table 20, symbol F); type: in vivo, southern crabgrass (Digitaria ciliaris); details: foliage application; for F: southern crabgrass, herbicidal effect: three weeks after application; for herbicidal effect on F: southern crabgrass: 320 g/ha, evaluated three weeks after application
Outline: as §2

barnyard grass [4] = assay: Test Example 4: herbicidal effect by soil treatment (Table 19, symbol H); type: in vivo, barnyard grass (Echinochloa crus-galli); details: for herbicidal effect rating, H: barnyard grass: 320 g/ha
Outline: as §1

Japanese bulrush = assay: Test Example 2: herbicidal activity, application during weed generation under submerged conditions (Table 17, symbol B); type: in vivo, Japanese bulrush (Schoenoplectus juncoides); details: application during weed generation, submerged conditions
Outline: (§3)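 3-wk visual-criteria score after one water-surface dose. Emulsion formulation, water-diluted to set rate; applied at 1–2 leaf stage; alluvial soil, 4 cm standing water; seeds co-sown; greenhouse 25–30° C.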

windgrass = assay: Test Example 5: herbicidal effect by foliage application, plastic box (Table 20, symbol L); type: in vivo, windgrass (Apera spica-venti); details: foliage application; for L: windgrass, herbicidal effect: three weeks after application; for herbicidal effect on L: windgrass: 320 g/ha, evaluated three weeks after application
Outline: as §2

oval-leafed pondweed [5] = assay: Test Example 1: herbicidal activity, application before weed generation under submerged conditions (Table 16, symbol C); type: in vivo, oval-leafed pondweed (Monochoria vaginalis)
Outline: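 Submerged Wagner pots (alluvial soil, 4 cm water) sown with weed seeds and planted with 2.5-leaf rice seedlings; emulsifiable concentrate diluted in water applied to water surface on sowing day. Held in greenhouse at 25-30 °C; injury scored 0-5 by herbicidal rate after three weeks.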

redroot pigweed [6] = assay: Test Example 4: herbicidal effect by soil treatment (Table 19, symbol N); type: in vivo, redroot pigweed (Amaranthus retroflexus); details: for herbicidal effect rating, N: redroot pigweed: 320 g/ha
Outline: as §1

persian speedwell [7] = assay: Test Example 5: herbicidal effect by foliage application, plastic box (Table 20, symbol R); type: in vivo, Persian speedwell (Veronica persica); details: foliage application; for R: persian speedwell, herbicidal effect: three weeks after application; for herbicidal effect on R: persian speedwell: 320 g/ha, evaluated three weeks after application
Outline: as §2

blackgrass = assay: Test Example 4: herbicidal effect by soil treatment (Table 19, symbol J); type: in vivo, blackgrass (Alopecurus myosuroides); details: for herbicidal effect rating, J: blackgrass: 320 g/ha
Outline: as §1

oval-leafed pondweed [8] = assay: Test Example 2: herbicidal activity, application during weed generation under submerged conditions (Table 17, symbol C); type: in vivo, oval-leafed pondweed (Monochoria vaginalis); details: application during weed generation, submerged conditions
Outline: as §3

SMILES	herbicidal effect on H (barnyard grass), rating 0-5 (barnyard grass [1]; 320 g/ha)	herbicidal effect rating, B: Japanese bulrush (Japanese bulrush; AAH 320 g/ha)	Herbicidal effect on C: oval-leafed pondweed (grade 0-5) (oval-leafed pondweed [5]; 320 g/ha applied herbicide)	herbicidal effect rating, C: oval-leafed pondweed (oval-leafed pondweed [8]; AAH 320 g/ha)	herbicidal effect rating, M: velvetleaf (velvetleaf)	herbicidal effect on P: chickweed (chickweed)	herbicidal effect rating, R: persian speedwell (persian speedwell [2])	herbicidal effect on N: redroot pigweed (redroot pigweed [3])	herbicidal effect on O: lambsquarters (lambsquarters)	herbicidal effect rating, G: green foxtail (green foxtail)	herbicidal effect on F: southern crabgrass (southern crabgrass)	herbicidal effect rating, H: barnyard grass (barnyard grass [4])	herbicidal effect on L: windgrass (windgrass)	herbicidal effect rating, N: redroot pigweed (redroot pigweed [6])	herbicidal effect on R: persian speedwell (persian speedwell [7])	herbicidal effect rating, J: blackgrass (blackgrass)	other results
Cc1nn(C)c(=O)c(-c2c(-c3ccc(OCC4CC4)cc3)sc3ccccc23)c1O [1-142]	3 (Herbicidal rate of 40% or more and less than 70%)	2 (Herbicidal rate of 20% or more and less than 40%)	5 (Herbicidal rate of 90% or more (almost completely withered))	0 (Herbicidal rate of 5% or less (almost no effect))													M: velvetleaf, herbicidal effect rating (velvetleaf; AAH 320 g/ha): 3 (Herbicidal rate of 40% or more and less than 70%); P: chickweed, herbicidal effect (chickweed; AAH 320 g/ha): 5 (Herbicidal rate of 90% or more (almost completely withered)); R: persian speedwell, herbicidal effect rating (persian speedwell [2]; AAH 320 g/ha): 5 (Herbicidal rate of 90% or more (almost completely withered)); N: redroot pigweed, herbicidal effect (redroot pigweed [3]; AAH 320 g/ha): 2 (Herbicidal rate of 20% or more and less than 40%); O: lambsquarters, herbicidal effect (lambsquarters; AAH 320 g/ha): 3 (Herbicidal rate of 40% or more and less than 70%); G: green foxtail, herbicidal effect rating (green foxtail; AAH 320 g/ha): 0 (Herbicidal rate of 5% or less (almost no effect)); F: southern crabgrass, herbicidal effect (southern crabgrass; AAH 320 g/ha): 1 (Herbicidal rate of 5% or more and less than 20%); H: barnyard grass, herbicidal effect rating (barnyard grass [4]; AAH 320 g/ha): 3 (Herbicidal rate of 40% or more and less than 70%); L: windgrass, herbicidal effect (windgrass; AAH 320 g/ha): 1 (Herbicidal rate of 5% or more and less than 20%); N: redroot pigweed, herbicidal effect rating (redroot pigweed [6]; AAH 320 g/ha): 4 (Herbicidal rate of 70% or more and less than 90%); R: persian speedwell, herbicidal effect (persian speedwell [7]; AAH 320 g/ha): 5 (Herbicidal rate of 90% or more (almost completely withered)); J: blackgrass, herbicidal effect rating (blackgrass; AAH 320 g/ha): 0 (Herbicidal rate of 5% or less (almost no effect))
COCCOc1ccc(-c2sc3ccccc3c2-c2c(O)c(C)nn(C)c2=O)cc1 [1-148]																	herbicidal effect on H (barnyard grass), rating 0-5 (barnyard grass [1]; 368 g/ha): 5 (Herbicidal rate of 90% or more (almost completely withered)); M: velvetleaf, herbicidal effect rating (velvetleaf; AAH 368 g/ha): 4 (Herbicidal rate of 70% or more and less than 90%); P: chickweed, herbicidal effect (chickweed; AAH 368 g/ha): 5 (Herbicidal rate of 90% or more (almost completely withered)); R: persian speedwell, herbicidal effect rating (persian speedwell [2]; AAH 368 g/ha): 5 (Herbicidal rate of 90% or more (almost completely withered)); N: redroot pigweed, herbicidal effect (redroot pigweed [3]; AAH 368 g/ha): 5 (Herbicidal rate of 90% or more (almost completely withered)); O: lambsquarters, herbicidal effect (lambsquarters; AAH 368 g/ha): 5 (Herbicidal rate of 90% or more (almost completely withered)); G: green foxtail, herbicidal effect rating (green foxtail; AAH 368 g/ha): 5 (Herbicidal rate of 90% or more (almost completely withered)); F: southern crabgrass, herbicidal effect (southern crabgrass; AAH 368 g/ha): 5 (Herbicidal rate of 90% or more (almost completely withered)); H: barnyard grass, herbicidal effect rating (barnyard grass [4]; AAH 368 g/ha): 5 (Herbicidal rate of 90% or more (almost completely withered)); herbicidal effect rating, B: Japanese bulrush (Japanese bulrush; AAH 368 g/ha): 3 (Herbicidal rate of 40% or more and less than 70%); L: windgrass, herbicidal effect (windgrass; AAH 368 g/ha): 4 (Herbicidal rate of 70% or more and less than 90%); Herbicidal effect on C: oval-leafed pondweed (grade 0-5) (oval-leafed pondweed [5]; 368 g/ha applied herbicide): 3 (Herbicidal rate of 40% or more and less than 70%); N: redroot pigweed, herbicidal effect rating (redroot pigweed [6]; AAH 368 g/ha): 5 (Herbicidal rate of 90% or more (almost completely withered)); R: persian speedwell, herbicidal effect (persian speedwell [7]; AAH 368 g/ha): 5 (Herbicidal rate of 90% or more (almost completely withered)); J: blackgrass, herbicidal effect rating (blackgrass; AAH 368 g/ha): 1 (Herbicidal rate of 5% or more and less than 20%); herbicidal effect rating, C: oval-leafed pondweed (oval-leafed pondweed [8]; AAH 368 g/ha): 1 (Herbicidal rate of 5% or more and less than 20%)
Cc1nn(C)c(=O)c(-c2c(-c3ccc(OCC(F)(F)F)cc3)sc3ccc(F)cc23)c1O [2-049]	5 (Herbicidal rate of 90% or more (almost completely withered))	2 (Herbicidal rate of 20% or more and less than 40%)	3 (Herbicidal rate of 40% or more and less than 70%)	2 (Herbicidal rate of 20% or more and less than 40%)	5 (Herbicidal rate of 90% or more (almost completely withered))	5 (Herbicidal rate of 90% or more (almost completely withered))	4 (Herbicidal rate of 70% or more and less than 90%)	5 (Herbicidal rate of 90% or more (almost completely withered))	5 (Herbicidal rate of 90% or more (almost completely withered))	5 (Herbicidal rate of 90% or more (almost completely withered))	5 (Herbicidal rate of 90% or more (almost completely withered))	5 (Herbicidal rate of 90% or more (almost completely withered))	5 (Herbicidal rate of 90% or more (almost completely withered))	5 (Herbicidal rate of 90% or more (almost completely withered))	5 (Herbicidal rate of 90% or more (almost completely withered))	4 (Herbicidal rate of 70% or more and less than 90%)	
C=CCOc1ccc(-c2sc3ccc(F)cc3c2-c2c(O)c(C)nn(C)c2=O)cc1 [2-051]	5 (Herbicidal rate of 90% or more (almost completely withered))	3 (Herbicidal rate of 40% or more and less than 70%)	4 (Herbicidal rate of 70% or more and less than 90%)	1 (Herbicidal rate of 5% or more and less than 20%)	3 (Herbicidal rate of 40% or more and less than 70%)	5 (Herbicidal rate of 90% or more (almost completely withered))	4 (Herbicidal rate of 70% or more and less than 90%)	5 (Herbicidal rate of 90% or more (almost completely withered))	5 (Herbicidal rate of 90% or more (almost completely withered))	5 (Herbicidal rate of 90% or more (almost completely withered))	5 (Herbicidal rate of 90% or more (almost completely withered))	4 (Herbicidal rate of 70% or more and less than 90%)	5 (Herbicidal rate of 90% or more (almost completely withered))	5 (Herbicidal rate of 90% or more (almost completely withered))	5 (Herbicidal rate of 90% or more (almost completely withered))	0 (Herbicidal rate of 5% or less (almost no effect))	
C#CCOc1ccc(-c2sc3ccc(F)cc3c2-c2c(O)c(C)nn(C)c2=O)cc1 [2-053]	5 (Herbicidal rate of 90% or more (almost completely withered))	3 (Herbicidal rate of 40% or more and less than 70%)	4 (Herbicidal rate of 70% or more and less than 90%)	3 (Herbicidal rate of 40% or more and less than 70%)	3 (Herbicidal rate of 40% or more and less than 70%)	5 (Herbicidal rate of 90% or more (almost completely withered))	5 (Herbicidal rate of 90% or more (almost completely withered))	5 (Herbicidal rate of 90% or more (almost completely withered))	5 (Herbicidal rate of 90% or more (almost completely withered))	4 (Herbicidal rate of 70% or more and less than 90%)	4 (Herbicidal rate of 70% or more and less than 90%)	2 (Herbicidal rate of 20% or more and less than 40%)	4 (Herbicidal rate of 70% or more and less than 90%)	0 (Herbicidal rate of 5% or less (almost no effect))	5 (Herbicidal rate of 90% or more (almost completely withered))	0 (Herbicidal rate of 5% or less (almost no effect))	
